Assay results: US20100137258A1, “THIOPHOSPHI(O)NIC ACID DERIVATIVES AND THEIR THERAPEUTICAL APPLICATIONS” (priority 2007, published 2010)
Like-named read-outs stand apart in the source and are kept apart here.

Legend:
mGlu4 = target: T1, mGlu4 (Rattus norvegicus, UniProt P31423); assay type: cell-based
T1 construct: expressed in transfected cells; host or cells: HEK293 (transient, electroporation)
From the text: (§1) These receptors were transiently expressed in HEK-293 cells as previously described. Since group III mGlu receptors are not naturally coupled to phospholipase-C but rather inhibit adenylyl cyclase, receptors were co-transfected with a chimeric G-protein alpha subunit which is recognized by these receptors but effectively activates the phospholipase-C pathway. Thus, the functional assay consisted in measuring the total inositol phosphate production resulting from receptor activation (ref. 10, 11).
(§2) Cell culture and transfection. Pharmacological experiments were carried out using HEK293 cells. Cells were cultured in Dulbecco's modified Eagle's medium supplemented with 10% foetal calf serum (FCS) and antibiotics (Penicillin and Streptomycin, 100 U/mL final).
(§3) Cells were transiently transfected with rat clones of group-III mGlu receptors (mGlu4, mGlu6, mGlu7 and mGlu8) by electroporation as described elsewhere (ref. 6) and plated in 96-well microplates. The high affinity glutamate transporter EAAC1 was also co-transfected with the receptor in order to avoid any influence of glutamate released by the cells in the assay medium. Since group-III mGluRs activates naturally Gi/o-proteins which modulate the adenylyl-cyclase pathway, these receptors were co-transfected with a chimeric G-protein which is recognized by these receptors but couples to the phospholipase-C pathway, thus leading to inositol phosphate (IP) production following receptor activation (ref. 7). Receptor activity was then determined by measurement of the IP production.
(§4) Functional assay. Inositol phosphate determination experiments in 96-well microplates were performed as already described (ref. 15). Briefly, 6 h following transfection, cell medium was removed and replaced by fresh medium devoid of glutamate, not complemented with FCS, and that contained ^3H-myoinositol. Cells were incubated overnight in this medium. The following day, cells were rinsed and ambient glutamate degraded by incubation in presence of GPT. Cells were stimulated by agonist for 30 min then the medium was removed and cells incubated for 1 h with cold 0.1 M formic acid which induced cell lysis. The ^3H-IP produced following receptor stimulation were recovered by ion exchange chromatography using a Dowex resin (Biorad). […] All points are realized in triplicate.

mGlu8 = target: T2, mGlu8 (Rattus norvegicus, UniProt P70579); assay type: cell-based
T2 construct: expressed in transfected cells; host or cells: HEK293 (transient, electroporation)
From the text: as §1, §2, §3, §4

mGlu6 = target: T3, mGlu6 (Rattus norvegicus, UniProt P35349); test: Inositol phosphate production in transfected HEK293 cells, mGlu6; assay type: cell-based
T3 construct: expressed in transfected cells; host or cells: HEK293 (transient, electroporation)
From the text: as §1, §2
(§5) Cells were transiently transfected with rat clones of group-III mGlu receptors (mGlu4, mGlu6, mGlu7 and mGlu8) by electroporation as described elsewhere (ref. 6) and plated in 96-well microplates. The high affinity glutamate transporter EAAC1 was also co-transfected with the receptor in order to avoid any influence of glutamate released by the cells in the assay medium. […] Receptor activity was then determined by measurement of the IP production. […]

mGlu7 = target: T4, mGlu7 (Rattus norvegicus, UniProt P35400); test: Inositol phosphate production in transfected HEK293 cells, mGlu7; assay type: cell-based
T4 construct: expressed in transfected cells; host or cells: HEK293 (transient, electroporation)
From the text: as §1, §2, §5

group III mGlu receptors [1] = test: Agonist activity across all group III mGlu receptor subtypes (summary); assay type: cell-based, rat
From the text: as §1, §3
Functional assay. […]

[2] = tested on: group I and II mGlu receptors; test: Selectivity versus group I and II mGlu receptors; assay type: cell-based
mGlu1/5 receptors = test: Effect at mGlu1/5 receptors; assay type: cell-based
group III mGlu receptors [3] = conditions: cited from earlier work
[4] = 31P NMR chemical shift versus pH, 27° C.
Protocol: In order to compare them, the pKa values of these amino acids were evaluated. […] Indicated pKa3 values were calculated by non-linear regression analysis using GraphPad Prism program. In addition, the ^31P NMR chemical shifts of 1 and 4 are sensitive to the ionization state, thus titration curves may be obtained from their pH dependence (ref. 7-9) (FIG. 1B). […] The pKa1 and pKa2 values are too close to be determined from the titration curves, however pKa3 and pKa4 are easily measured. […]
Each ^31P NMR spectrum was acquired at 27° C. with external H3PO4 (95%) reference at 0 ppm (sealed capillary). […] A total of 27 spectra (1) or 23 spectra (4) were recorded over a pH range of 0.50-12.50 (1) or 0.51-12.56 (4). The P NMR chemical shifts of the dianionic and monoanionic forms of the (thio)phosphonate groups were plotted against measured pH. All pKa values were calculated by non-linear regression analysis using the GraphPad Prism program (GraphPad Software Inc., San Diego Calif.) and the equation pH=pKa−log[(δa−δ)/(δ−δb)] where δ is the ^31P NMR chemical shift at varying pH, δa and δb the ^31P NMR chemical shifts with titrating group in fully acidic or basic form respectively.

mGlu4R = mGlu4R (Homo sapiens, UniProt Q14833); conditions: read-out: EC50 as mGlu4R agonist; background statement; cited from earlier work
mGlu2 receptor = mGlu2 receptor (Homo sapiens, UniProt Q14416); conditions: described in the literature; cited from earlier work
[5] = agonist activity, IP production, HEK-293, mean ± SEM (n)

T4 sequence (P35400 35-915): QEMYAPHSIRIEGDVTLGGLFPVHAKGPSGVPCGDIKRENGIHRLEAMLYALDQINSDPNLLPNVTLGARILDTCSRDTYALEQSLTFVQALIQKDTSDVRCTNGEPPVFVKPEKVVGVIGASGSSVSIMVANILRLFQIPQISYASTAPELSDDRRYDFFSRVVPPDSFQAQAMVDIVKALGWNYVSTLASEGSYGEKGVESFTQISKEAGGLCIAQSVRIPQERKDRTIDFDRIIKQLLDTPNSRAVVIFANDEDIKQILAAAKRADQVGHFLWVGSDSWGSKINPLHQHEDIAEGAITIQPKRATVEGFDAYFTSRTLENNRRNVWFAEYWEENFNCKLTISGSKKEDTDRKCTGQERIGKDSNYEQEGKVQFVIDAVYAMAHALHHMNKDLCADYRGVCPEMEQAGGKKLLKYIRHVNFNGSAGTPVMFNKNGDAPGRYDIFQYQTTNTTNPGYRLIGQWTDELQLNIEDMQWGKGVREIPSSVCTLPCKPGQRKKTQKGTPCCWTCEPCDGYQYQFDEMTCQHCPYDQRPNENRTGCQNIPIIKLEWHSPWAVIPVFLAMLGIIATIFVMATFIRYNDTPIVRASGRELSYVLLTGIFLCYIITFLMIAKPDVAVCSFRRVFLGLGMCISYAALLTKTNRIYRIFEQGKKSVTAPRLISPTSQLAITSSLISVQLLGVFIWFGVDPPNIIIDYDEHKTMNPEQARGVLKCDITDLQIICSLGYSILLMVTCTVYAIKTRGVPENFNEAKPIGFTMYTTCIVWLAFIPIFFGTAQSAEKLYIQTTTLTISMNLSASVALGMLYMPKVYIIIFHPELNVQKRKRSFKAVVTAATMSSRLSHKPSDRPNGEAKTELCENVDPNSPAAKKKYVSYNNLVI
T2 sequence (P70579 34-908): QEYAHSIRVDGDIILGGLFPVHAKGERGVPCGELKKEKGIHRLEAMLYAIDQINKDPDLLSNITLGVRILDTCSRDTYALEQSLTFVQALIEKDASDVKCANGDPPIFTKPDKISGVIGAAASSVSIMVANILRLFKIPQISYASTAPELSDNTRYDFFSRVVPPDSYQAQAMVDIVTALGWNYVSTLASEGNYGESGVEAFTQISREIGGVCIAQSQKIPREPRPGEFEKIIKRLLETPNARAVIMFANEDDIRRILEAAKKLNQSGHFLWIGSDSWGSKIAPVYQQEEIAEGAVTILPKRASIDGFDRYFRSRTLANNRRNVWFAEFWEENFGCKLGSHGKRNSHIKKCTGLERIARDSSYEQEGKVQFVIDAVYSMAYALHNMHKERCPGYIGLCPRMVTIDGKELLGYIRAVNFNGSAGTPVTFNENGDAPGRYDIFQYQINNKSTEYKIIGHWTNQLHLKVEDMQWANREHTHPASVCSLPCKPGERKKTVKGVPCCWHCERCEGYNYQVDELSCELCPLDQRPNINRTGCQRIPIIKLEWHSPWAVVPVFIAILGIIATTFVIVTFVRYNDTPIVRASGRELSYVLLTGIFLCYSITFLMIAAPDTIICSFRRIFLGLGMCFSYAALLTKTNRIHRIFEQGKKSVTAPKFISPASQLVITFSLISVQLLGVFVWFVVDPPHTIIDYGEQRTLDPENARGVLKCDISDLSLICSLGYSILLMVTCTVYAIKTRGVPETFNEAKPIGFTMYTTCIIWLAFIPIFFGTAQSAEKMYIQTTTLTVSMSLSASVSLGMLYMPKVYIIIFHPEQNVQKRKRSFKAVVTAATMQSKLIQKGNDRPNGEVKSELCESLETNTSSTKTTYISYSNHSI
T1 sequence (P31423 33-912): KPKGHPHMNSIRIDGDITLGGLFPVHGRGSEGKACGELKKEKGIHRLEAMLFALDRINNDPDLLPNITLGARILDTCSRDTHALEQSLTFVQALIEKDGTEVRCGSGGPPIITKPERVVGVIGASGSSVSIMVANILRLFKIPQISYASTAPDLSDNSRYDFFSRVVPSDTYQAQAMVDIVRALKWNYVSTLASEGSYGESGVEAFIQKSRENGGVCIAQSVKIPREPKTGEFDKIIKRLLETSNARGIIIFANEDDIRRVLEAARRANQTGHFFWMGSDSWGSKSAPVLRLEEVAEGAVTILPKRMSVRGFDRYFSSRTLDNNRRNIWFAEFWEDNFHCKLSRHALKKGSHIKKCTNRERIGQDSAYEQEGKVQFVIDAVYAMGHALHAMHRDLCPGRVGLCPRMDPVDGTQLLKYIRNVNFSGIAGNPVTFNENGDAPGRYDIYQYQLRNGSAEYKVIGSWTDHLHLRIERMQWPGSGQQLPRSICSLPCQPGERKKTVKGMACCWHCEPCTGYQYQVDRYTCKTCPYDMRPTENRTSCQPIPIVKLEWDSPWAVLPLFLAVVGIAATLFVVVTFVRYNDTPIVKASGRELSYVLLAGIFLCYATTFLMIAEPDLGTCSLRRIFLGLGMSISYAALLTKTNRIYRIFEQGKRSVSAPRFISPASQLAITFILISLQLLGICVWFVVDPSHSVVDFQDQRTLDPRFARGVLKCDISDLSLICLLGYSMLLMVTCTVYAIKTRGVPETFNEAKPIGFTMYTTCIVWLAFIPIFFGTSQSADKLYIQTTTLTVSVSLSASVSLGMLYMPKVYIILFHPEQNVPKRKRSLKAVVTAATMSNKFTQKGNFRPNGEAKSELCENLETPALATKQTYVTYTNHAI
T3 sequence (P35349 24-871): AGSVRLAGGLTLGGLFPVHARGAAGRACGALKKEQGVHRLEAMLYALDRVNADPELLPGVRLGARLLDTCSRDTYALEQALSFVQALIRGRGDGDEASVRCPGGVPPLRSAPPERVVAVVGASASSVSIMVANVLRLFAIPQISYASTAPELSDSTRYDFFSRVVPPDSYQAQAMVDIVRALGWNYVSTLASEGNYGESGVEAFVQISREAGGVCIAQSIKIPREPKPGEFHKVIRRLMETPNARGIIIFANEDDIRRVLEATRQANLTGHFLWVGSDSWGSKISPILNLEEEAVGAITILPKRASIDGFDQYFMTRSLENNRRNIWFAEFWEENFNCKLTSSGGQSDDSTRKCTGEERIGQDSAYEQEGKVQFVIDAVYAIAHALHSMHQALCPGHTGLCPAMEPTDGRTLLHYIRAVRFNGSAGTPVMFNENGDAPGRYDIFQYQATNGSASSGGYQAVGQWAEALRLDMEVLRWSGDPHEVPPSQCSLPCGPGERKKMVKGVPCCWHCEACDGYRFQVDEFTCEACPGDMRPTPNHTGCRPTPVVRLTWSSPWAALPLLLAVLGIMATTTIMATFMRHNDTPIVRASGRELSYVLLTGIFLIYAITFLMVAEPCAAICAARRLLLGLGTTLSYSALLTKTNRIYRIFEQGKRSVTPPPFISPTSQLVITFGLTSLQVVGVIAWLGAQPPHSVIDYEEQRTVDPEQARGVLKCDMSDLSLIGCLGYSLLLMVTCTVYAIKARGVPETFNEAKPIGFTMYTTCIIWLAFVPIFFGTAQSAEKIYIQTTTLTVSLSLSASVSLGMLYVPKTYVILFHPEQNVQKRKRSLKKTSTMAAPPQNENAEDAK
Chain of mGlu2 receptor (Q14416 19-872): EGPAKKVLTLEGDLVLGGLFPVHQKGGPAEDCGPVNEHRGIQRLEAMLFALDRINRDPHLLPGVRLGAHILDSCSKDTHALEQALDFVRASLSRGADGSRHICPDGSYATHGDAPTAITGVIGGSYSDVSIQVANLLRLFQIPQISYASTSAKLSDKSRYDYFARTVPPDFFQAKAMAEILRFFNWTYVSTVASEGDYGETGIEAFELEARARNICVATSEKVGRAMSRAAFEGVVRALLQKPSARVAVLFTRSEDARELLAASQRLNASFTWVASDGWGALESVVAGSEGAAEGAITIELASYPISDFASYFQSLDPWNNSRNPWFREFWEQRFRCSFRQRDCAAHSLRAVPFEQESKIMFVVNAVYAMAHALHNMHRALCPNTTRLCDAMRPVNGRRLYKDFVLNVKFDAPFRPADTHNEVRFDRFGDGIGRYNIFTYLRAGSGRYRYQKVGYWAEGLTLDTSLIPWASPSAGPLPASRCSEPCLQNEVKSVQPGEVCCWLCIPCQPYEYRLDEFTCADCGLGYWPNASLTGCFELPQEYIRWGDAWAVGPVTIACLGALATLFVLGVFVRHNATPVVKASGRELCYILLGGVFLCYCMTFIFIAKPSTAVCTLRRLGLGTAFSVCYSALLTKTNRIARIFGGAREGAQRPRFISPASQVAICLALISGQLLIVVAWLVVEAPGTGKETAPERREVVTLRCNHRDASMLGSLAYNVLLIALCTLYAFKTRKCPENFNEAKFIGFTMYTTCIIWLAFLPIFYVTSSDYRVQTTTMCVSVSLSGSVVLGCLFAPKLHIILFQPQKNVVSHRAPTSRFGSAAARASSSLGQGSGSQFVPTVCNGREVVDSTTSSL

| SMILES | EC50 (mGlu4) [nM] | EC50 (mGlu8) [nM] | EC50 (mGlu6) [nM] | EC50 (mGlu7) [nM] | selectivity among group III mGlu receptor subtypes (group III mGlu receptors [1]) | activity relative to L-AP4 (1) (group III mGlu receptors [1]; on all subtypes, Student's paired T test P<0.05) | agonist or antagonist activity on group I and II mGlu receptors [2] | effect at mGlu1/5 receptors (mGlu1/5 receptors) | activity compared to glutamate at group III mGlu receptors (group III mGlu receptors [3]) | EC50 (mGlu4; [5]) [nM] | EC50 (mGlu8; [5]) [nM] | EC50 (mGlu6; [5]) [nM] | EC50 (mGlu7; [5]) [nM] | agonist or antagonist activity on group I and II mGlu receptors ([2]; at 100 μM) | experimental pKa3 ([4]; second acidity of (thio)phosphonate) | experimental pKa4 ([4]; α-ammonium group) | EC50 (mGlu4R) [nM] | mGlu2 receptor antagonist activity (mGlu2 receptor) |
| --- | --- | --- | --- | --- | --- | --- | --- | --- | --- | --- | --- | --- | --- | --- | --- | --- | --- | --- |
| N[C@@H](CCP(O)(O)=S)C(=O)O [L-thioAP4, L(+)-2-Amino-4-thiophosphonobutyric acid] | 39 | 54 | 730 | 197000 | not subtype selective | about two fold | no agonist or antagonist activity | no effect | – | – | – | – | – | – | – | – | – | – |
| N[C@@H](CCS(=O)(=O)O)C(=O)O [L-homocysteic acid] | – | – | – | – | – | – | – | – | no enhanced activity compared to glutamate | – | – | – | – | – | – | – | – | – |
| N[C@@H](CCP(=O)(O)O)C(=O)O [L-AP4, L(+)-2-Amino-4-phosphonobutyric Acid] | – | – | – | – | – | – | – | no effect | – | 80 ± 17 | 128 ± 19 | 2080 ± 380 | 440000 ± 120000 | no agonist or antagonist activity | 6.88 | 9.90 | 320 | modest mGlu2 receptor antagonist |
